Measured values as given in patent publication US9169199B2, “Cycloalkyl guanidine F1F0-ATPase inhibitors and therapeutic uses thereof” (Lycera Corporation, priority 2010, dated 2015).

Legend:
F1F0-ATPase = biological target: T1, F1F0-ATPase (Bos taurus, UniProt P13621); assay: Inhibition of ATP synthesis by the F1F0-ATPase; format: biochemical
T1 construct: from tissue
Description: (§1) Compounds in Example 4 above were tested for activity against F1F0-ATPase by measuring ATP synthesis. In addition, the compounds were assessed for cytotoxicity in Ramos cells. Inhibition of ATP synthesis by the F1F0-ATPase and cytotoxicity in Ramos cells were measured according to the procedures described in K. M. Johnson et al. Chemistry & Biology 2005, 12, 485-496.

Ramos cells = assay: Cytotoxicity in Ramos cells; format: cell-based; settings: Homo sapiens, read-out: Ramos cell EC50
Description: as §1

| SMILES | IC50 (F1F0-ATPase) [µM] | EC50 (Ramos cells) [µM] |
| --- | --- | --- |
| CC(C)(C)C(=O)N[C@H]1CC[C@H](N/C(=N\C(=O)c2ccc(F)c(F)c2)Nc2cc(F)cc(Cl)c2)CC1 [Compound 102] | < 10 | < 10 |
| CCOC(=O)N[C@H]1CC[C@H](N/C(=N\C(=O)c2ccc(F)c(F)c2)NC(C)(C)C)CC1 [Compound 103] | > 10 | > 10 |
| CCOC(=O)N[C@H]1CC[C@H](N/C(=N\C(=O)c2ccc(F)c(F)c2)NC2CC2)CC1 [Compound 104] | > 10 | > 10 |
| CCOC(=O)N[C@H]1CC[C@H](N/C(=N\C(=O)c2ccc(F)c(F)c2)NC(C)(C)C(F)(F)F)CC1 [Compound 105] | > 10 | > 10 |
| CCOC(=O)N[C@H]1CC[C@H](N/C(=N\C(=O)c2ccc(F)c(F)c2)NC2(C)CCC2)CC1 [Compound 106] | > 10 | > 10 |
| CCOC(=O)N[C@H]1CC[C@H](N/C(=N\C(=O)c2ccc(F)c(F)c2)NCC(F)(F)F)CC1 [Compound 107] | > 10 | > 10 |
| CC(C)(C)N/C(=N/C(=O)c1ccc(F)c(F)c1)N[C@H]1CC[C@H](O)CC1 [Compound 108] | > 10 | > 10 |
| CCOC(=O)N[C@H]1CC[C@H](N/C(=N\C(=O)c2ccc(F)c(F)c2)NC2CCCC2)CC1 [Compound 109] | > 10 | > 10 |
| CCOC(=O)N[C@H]1CC[C@H](N/C(=N\C(=O)c2ccc(C(F)(F)F)cc2)NC2CCCC2)CC1 [Compound 110] | < 10 | > 10 |
| CCOC(=O)N[C@H]1CC[C@H](N/C(=N\C(=O)c2ccc(C(F)(F)F)cc2)NC(C)(C)C)CC1 [Compound 111] | < 10 | > 10 |
| CC(C)(C)N/C(=N/C(=O)c1ccc(C(F)(F)F)cc1)N[C@H]1CC[C@H](Nc2ncccn2)CC1 [Compound 112] | > 10 | > 10 |
| CC1(N/C(=N/C(=O)c2ccc(C(F)(F)F)cc2)N[C@H]2CC[C@H](Nc3ncccn3)CC2)CCC1 [Compound 113] | < 10 | < 10 |
| O=C(/N=C(/NC1CCCC1)N[C@H]1CC[C@H](Nc2ncccn2)CC1)c1ccc(C(F)(F)F)cc1 [Compound 114] | < 10 | < 10 |
| O=C(/N=C(/Nc1cc(F)cc(Cl)c1)N[C@H]1CC[C@H](Nc2ncccn2)CC1)c1ccc(C(F)(F)F)cc1 [Compound 115] | < 10 | < 10 |
| O=C(/N=C(/Nc1cccc(C(F)(F)F)c1)N[C@H]1CC[C@H](Nc2ncccn2)CC1)c1ccc(C(F)(F)F)cc1 [Compound 116] | < 10 | < 10 |
| O=C(/N=C(/Nc1cc(F)cc(Cl)c1)N[C@H]1CC[C@H](Nc2cnccn2)CC1)c1ccc(F)c(F)c1 [Compound 117] | < 10 | < 10 |
| O=C(/N=C(/Nc1cc(F)cc(Cl)c1)N[C@H]1CC[C@H](Nc2ncccn2)CC1)c1ccc(Cl)cc1 [Compound 118] | < 10 | < 10 |
| O=C(/N=C(/Nc1cccc(C(F)(F)F)c1)N[C@H]1CC[C@H](Nc2ncccn2)CC1)c1ccc(Cl)cc1 [Compound 119] | < 10 | < 10 |
| O=C(/N=C(/Nc1cc(F)cc(Cl)c1)N[C@H]1CC[C@@H](Nc2ncccn2)CC1)c1ccc(F)c(F)c1 [Compound 120] | < 10 | < 10 |
| CC1(N/C(=N/C(=O)c2ccc(C(F)(F)F)cc2)N[C@H]2CC[C@H](Nc3ncccn3)CC2)CCCC1 [Compound 121] | < 10 | < 10 |
| CC1(N/C(=N/C(=O)c2ccc(Cl)cc2)N[C@H]2CC[C@H](Nc3ncccn3)CC2)CCCC1 [Compound 122] | < 10 | < 10 |
| O=C(/N=C(/Nc1cc(F)cc(Cl)c1)N[C@H]1CCCC[C@H]1O)c1ccc(C(F)(F)F)cc1 [Compound 123] | < 10 | < 10 |
| O=C(/N=C(/Nc1cc(F)cc(Cl)c1)NC1CCCC(Nc2ncccn2)C1)c1ccc(F)c(F)c1 (stereo not shown) [Compound 124] | < 10 | < 10 |
| CCOC(=O)N[C@H]1CCC[C@@H](N/C(=N\C(=O)c2ccc(F)c(F)c2)Nc2cc(F)cc(Cl)c2)C1 [Compound 125] | < 10 | < 10 |
| CCOC(=O)N[C@@H]1CCC[C@@H](N/C(=N\C(=O)c2ccc(F)c(F)c2)Nc2cc(F)cc(Cl)c2)C1 [Compound 126] | < 10 | < 10 |

| SMILES | IC50 (F1F0-ATPase) [µM] | EC50 (Ramos cells) [µM] |
| --- | --- | --- |
| O=C(/N=C(/Nc1cc(F)cc(Cl)c1)N[C@H]1CCCC[C@H]1O)c1ccc(F)c(F)c1 [Compound 128] | < 10 | < 10 |
| O=C(/N=C(/Nc1cc(F)cc(Cl)c1)N[C@H]1CCCC[C@@H]1O)c1ccc(F)c(F)c1 [Compound 129] | < 10 | < 10 |
| O=C(/N=C(/Nc1cc(F)cc(Cl)c1)N[C@H]1CC[C@H](NC(=O)C(F)(F)F)CC1)c1ccc(F)c(F)c1 [Compound 130] | < 10 | < 10 |
| O=C(/N=C(/Nc1cccc(Cl)c1)N[C@H]1CC[C@H](NC(=O)c2cnccn2)CC1)c1ccc(F)c(F)c1 [Compound 131] | < 10 | < 10 |
| Cc1cc(C(=O)N[C@H]2CC[C@H](N/C(=N\C(=O)c3ccc(F)c(F)c3)Nc3cccc(Cl)c3)CC2)ccn1 [Compound 132] | < 10 | < 10 |
| O=C(/N=C(/Nc1cccc(Cl)c1)N[C@H]1CC[C@H](NC(=O)c2cccs2)CC1)c1ccc(F)c(F)c1 [Compound 133] | < 10 | < 10 |
| O=C(/N=C(/Nc1cccc(Cl)c1)N[C@H]1CC[C@H](NC(=O)c2ccccc2)CC1)c1ccc(F)c(F)c1 [Compound 134] | < 10 | < 10 |
| CN(C)C(=O)N[C@H]1CC[C@H](N/C(=N\C(=O)c2ccc(F)c(F)c2)Nc2cc(F)cc(Cl)c2)CC1 [Compound 135] | < 10 | < 10 |
| O=C(/N=C(/Nc1cc(F)cc(Cl)c1)N[C@H]1CC[C@H](NC(=O)N2CCOCC2)CC1)c1ccc(F)c(F)c1 [Compound 136] | < 10 | < 10 |
| O=C(/N=C(/Nc1cc(F)cc(Cl)c1)N[C@H]1CC[C@H](NC(=O)N2CCCC2)CC1)c1ccc(F)c(F)c1 [Compound 137] | < 10 | < 10 |
| CC(C)(C)CN/C(=N/C(=O)c1ccc(F)c(F)c1)N[C@H]1CC[C@H](Nc2ncccn2)CC1 [Compound 138] | < 10 | < 10 |
| O=C(/N=C(/Nc1cc(F)cc(Cl)c1)N[C@H]1CC[C@H](NC(=O)c2cccs2)CC1)c1ccc(F)c(F)c1 [Compound 139] | < 10 | < 10 |
| O=C(/N=C(/Nc1cc(F)cc(Cl)c1)N[C@H]1CC[C@H](NC(=O)c2ccccc2)CC1)c1ccc(F)c(F)c1 [Compound 140] | < 10 | < 10 |
| CC(C)(C)CN/C(=N/C(=O)c1ccc(F)c(F)c1)N[C@H]1CC[C@H](NC(=O)c2cccs2)CC1 [Compound 141] | < 10 | < 10 |
| CC(C)(C)CN/C(=N/C(=O)c1ccc(F)c(F)c1)N[C@H]1CC[C@H](NC(=O)c2ccccc2)CC1 [Compound 142] | < 10 | < 10 |
| O=C(/N=C(/NC1CCCC1)N[C@H]1CC[C@H](Nc2ncccn2)CC1)c1ccc(Cl)c(F)c1 [Compound 143] | < 10 | < 10 |
| CC(C)(C)CN/C(=N/C(=O)c1ccc(Cl)c(F)c1)N[C@H]1CC[C@H](Nc2ncccn2)CC1 [Compound 144] | < 10 | < 10 |
| CCOC(=O)NC1CCC(N/C(=N\C(=O)c2ccc(F)c(S(C)(=O)=O)c2)NCc2ccc(F)cc2Cl)CC1 (stereo not shown) [Compound 145] | > 10 | > 10 |
| CCOC(=O)NC1CCC(N/C(=N\C(=O)c2ccc(F)c(S(C)(=O)=O)c2)Nc2cc(F)cc(Cl)c2)CC1 (stereo not shown) [Compound 146] | > 10 | > 10 |
| COC(=O)NC1CCC(N/C(=N\C(=O)c2ccc(C)cc2)Nc2cc(F)cc(Cl)c2)CC1 (stereo not shown) [Compound 147] | < 10 | < 10 |
| Cc1ccc(C(=O)/N=C(/Nc2cc(F)cc(Cl)c2)NC2CCC(NC(=O)c3ccccc3)CC2)cc1 (stereo not shown) [Compound 148] | < 10 | < 10 |
| CCOC(=O)NC1CCC(N/C(=N\C(=O)c2ccccc2)Nc2cc(F)cc(Cl)c2)CC1 (stereo not shown) [Compound 149] | < 10 | < 10 |
| COC(=O)NC1CCC(N/C(=N\C(=O)c2ccccc2)Nc2cc(F)cc(Cl)c2)CC1 (stereo not shown) [Compound 150] | < 10 | > 10 |
| O=C(/N=C(/Nc1cc(F)cc(Cl)c1)NC1CCC(NC(=O)c2ccccc2)CC1)c1ccccc1 (stereo not shown) [Compound 151] | < 10 | < 10 |
| CCOC(=O)NC1CCC(N/C(=N\C(=O)c2ccc(OC)cc2)Nc2cc(F)cc(Cl)c2)CC1 (stereo not shown) [Compound 152] | < 10 | < 10 |
